Experiments:
[1] = target: T1, Dnm1, the yeast ortholog of Drp1 (Saccharomyces cerevisiae, UniProt P54861); conditions: US2005/0038051 and US2008/0287473; cited from earlier work
T1 sequence (P54861 1-757): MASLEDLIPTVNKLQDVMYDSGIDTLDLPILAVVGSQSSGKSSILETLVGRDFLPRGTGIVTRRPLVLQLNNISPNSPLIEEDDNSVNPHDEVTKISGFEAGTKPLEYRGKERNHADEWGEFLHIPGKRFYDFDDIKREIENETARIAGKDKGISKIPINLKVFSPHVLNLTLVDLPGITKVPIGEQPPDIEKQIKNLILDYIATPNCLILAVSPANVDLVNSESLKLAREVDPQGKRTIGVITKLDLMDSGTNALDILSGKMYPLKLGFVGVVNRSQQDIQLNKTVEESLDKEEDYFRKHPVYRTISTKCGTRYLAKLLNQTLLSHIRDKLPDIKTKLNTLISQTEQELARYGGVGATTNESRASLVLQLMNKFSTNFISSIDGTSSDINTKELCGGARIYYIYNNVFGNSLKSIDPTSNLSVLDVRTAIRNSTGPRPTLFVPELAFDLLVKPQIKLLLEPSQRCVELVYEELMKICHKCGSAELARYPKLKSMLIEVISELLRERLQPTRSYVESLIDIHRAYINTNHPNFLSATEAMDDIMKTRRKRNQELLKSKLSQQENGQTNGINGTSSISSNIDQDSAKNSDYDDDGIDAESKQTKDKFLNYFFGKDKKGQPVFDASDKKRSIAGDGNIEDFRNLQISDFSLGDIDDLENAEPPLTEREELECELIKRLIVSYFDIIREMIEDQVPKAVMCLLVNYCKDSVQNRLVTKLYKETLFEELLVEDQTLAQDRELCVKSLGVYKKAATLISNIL

[2] = tested on: MDA-MB-231 cells; assay: Chromosome and mitotic spindle morphology in mitotic cells; type: cell-based, human; conditions: 7 hours
Experimental: The effect of Drp1 inhibition of chromosome stability was then evaluated. MDA-MB-231 cells that have been engineered to stably express a mitochondrial marker protein pAcGFP-1-mito were treated with mdivi-1 for 7 hours. Mitotic cells were selected for examining the morphology of their chromosomes and mitotic spindles. Chromosomes were visualized by DAPI, and mitotic spindles were visualized by staining cells with Alex-Fluor 555-conjugated anti-β tubulin antibody. The results are shown in FIG. 11; two representative mitotic figures are shown.

[3] = tested on: MDA-MB-231 cells; assay: Cisplatin cytotoxicity under Drp1 inhibition (subG1, LIVE/DEAD kit, caspase Western blot); type: cell-based, human
Experimental: To test the effect of Drp-1 inhibition on the effectiveness of cisplatin, in a first series of experiments, MDA-MB-231 cells were transfected with control or Drp1 siRNA, and 48 hours later were then treated with 40 μM of cisplatin for a 24 hour period. The effect of different concentrations of cisplatin on the Drp1 knockdown cells is shown in FIG. 13A, where the subG1 portion in the cell cycle profile indicates cytotoxicity. In a second series of experiments, a LIVE/DEAD Viability/Cytotoxicity kit (Invitrogen) was used to evaluate the effect of inhibition of Drp1 by mdivi-1 on cisplatin cytotoxicity. In this test, the percentage of lice and dead cells are determined simultaneously with two probes, calcein AM and ethidium homodimer (EthD-1). […] EthD-1 is excluded by the intact plasma membrane of live cells but is able to enter cells with damaged membranes and undergo a 40-fold enhancement of red fluorescence upon binding to nucleic acids. […] Calcein AM and EthD-1 were added to the cell suspension at final concentrations of 0.1 μM and 8 μM, respectively, Fluorescence intensity was analyzed on a CyAn ADP Analyzer (Beckman Coulter, Brea, Calif.) and the results were analyzed using Summit software. The live-cell population that was positively stained with calcein was detected in the bottom right region and indicated with an arrow. […]

For `COc1cc(-n2c(=S)[nH]c3ccccc3c2=O)c(Cl)cc1Cl` [mdivi-1], the “inhibition of Dnm1” value [1] is listed as “selective inhibitor”, the “chromosome stability during mitosis” value [2] is listed as “chromosomal instability” and the “number of dead cells after cisplatin, coadministered with mdivi-1” value ([3]; 50 μM mdivi-1, 12 hours, LIVE/DEAD kit) is listed as “increased”. The “number of apoptotic cells after cisplatin, coadministered with mdivi-1” value ([3]; caspase activation by Western Blot) was “increased”.
